# Patent publication US20090227606A1, “Methods for Preventing or Treating Acute and Chronic Pain” (priority 2006, published 2009)
# Entries after “also recorded” stand apart in the source; their conditions may differ.
# Experiments:
# [1] = system: GLT-1 mRNA; test: Real Time RT-PCR of cultured astrocytes, GLT-1 mRNA; assay type: cell-based, rat
# Method: After approximately 14 days (2 days after subplating into plates, DIV 14) astrocytes had formed a confluent monolayer. […] Phase contrast microscopy was then carried out in order to assess the morphology of cells after the various treatments. Length of astrocyte processes was quantified by measuring all processes in 2-3 phase contrast images/group by an independent observer, blinded to the treatment groups using Image J v1.34s (National Institutes of Health, Bethesda, Md.).
# Total RNA was isolated from astrocyte cultures using the Qiagen RNeasy mini-kit (Qiagen Inc., Valencia, Calif.) according to the manufacturer's protocol for isolation of total RNA from animal cells. Reverse transcription (RT) was carried out using the high-capacity cDNA archive kit (Applied Biosystems, Foster City, Calif.) according to the vendor's protocol. Real-time RT-PCR reactions were carried out in a total reaction volume of 25 μL containing a final concentration of 1.5 U Platinum Taq DNA polymerase (Invitrogen Corporation, Carlsbad, Calif.); 20 mM Tris HCl (pH 8.4); 50 mM KCl; 3 mM MgCl2; 200 μM dGTP, dCTP, and dATP; 400 μM dUTP and 1 U of UDG (uracyl DNA glycosylase); 900 nM of forward and reverse primers; 300 nM Taqman probe; and 5 μL of cDNA (50 ng) from the RT step. The iCycler™ Multicolor Real-Time PCR detection system (Bio-Rad Laboratories, Hercules, Calif.) was used to quantify PCR product. The fluorescence and threshold values (CT) obtained were used to compare the relative amount of target mRNA in experimental groups to those of controls using the 2^−ΔΔC^T method (Livak, K. J. and T. D. Schmittgen. 2001. Methods 25:402-408). Each experiment was run twice and samples were run in duplicate. For each sample, the mean CT value for the control gene (GAPDH) was then subtracted from the mean CT value for the gene of interest (GLT-1, GLAST) to obtain a ΔCT value. The ΔCT values for the control group (untreated) were then averaged and subtracted from the ΔCT for the experimental groups to obtain the ΔΔCT. The relative fold change from control was then expressed by calculation of 2^−ΔΔC^T for each sample and the results are expressed as the group mean fold change±SEM.
# [2] = system: GLAST; test: Immunocytochemistry of cultured astrocytes, GLAST staining; assay type: cell-based, rat; settings: treated astrocytes
# Method: Primary astrocyte-enriched cultures were plated onto sterile 18 mm glass coverslips. After three washes in PBS, cells were permeabilized in 5% glacial acetic acid/95% ethanol (acid-alcohol) for 10 minutes. After washing, cells were incubated in a 1% normal goat serum for 30 minutes and then overnight at 4° C. in primary mouse anti-GFAP (1:500), rabbit anti-GLT-1 (1:500) or guinea pig anti-GLAST (1:2000). The following day, cells were washed and then incubated for 2 hours at room temperature with goat anti-mouse Alexa Fluor™-555 (Invitrogen Corporation, Carlsbad, Calif.) goat anti-guinea pig Alexa Fluor™-488 (Invitrogen Corporation, Carlsbad, Calif.) or goat anti-rabbit Alexa Fluor™-488 (Invitrogen Corporation, Carlsbad, Calif.; all at 1:250). Finally, cells were post-fixed in acid-alcohol and mounted with Vectashield (Vector Labs, Burlingame, Calif.) containing 4′,6-diamidino-2-phenylindole dihydrochloride hydrate (DAPI, Sigma Chemical Co., St Louis, Mo.), in order to visualize cell nuclei. The sections were examined with a fluorescence microscope, and images were captured with a Q-Fire cooled camera (Olympus, Melville, N.Y.). Confocal microscopy was also performed using a Zeiss LSM 510 Meta confocal microscope (Carl Zeiss AG, Oberkochen, Germany). Merged color images were processed using Adobe Photoshop 7.0 (Adobe Systems, San Jose, Calif.).
# [3] = system: cyclic-adenosine-5′,3′-monophosphate (cAMP)-specific phosphodiesterase (PDE IV); settings: literature; cited from earlier work
# [4] = system: Na+-dependent glutamate transport; test: Na+-dependent [3H]-glutamate uptake in cultured astrocytes; assay type: cell-based, rat
# Method: Primary astrocytes were plated in 6-well plates, as described above. […] Where indicated, 100 μM dihydrokainate (DHK) was added to wells for 10 minutes before the addition of the substrate. Subsequently, [^3H]-glutamate in Na^+ Krebs buffer or Na^+-free Krebs buffer (choline buffer) was added for 4 minutes at 37° C. The reaction was stopped by washing three times with ice cold buffer (0.05 M Tris/0.16 M NaCl, pH 7.4), and cells were lysed with 1 ml 0.1 N NaOH. The radioactivity in a 500 μl lysate aliquot was determined by liquid scintillation counting and a fraction of the lysate was also used for determination of protein concentration using the Lowry method (DC assay, Bio-Rad, Hercules, Calif.). Na^+-dependent transport was calculated as the difference in the radioactivity accumulated in the presence and absence of Na^+ and calculated as nmol/mg protein/min. Results are expressed as uptake relative to control samples.
# [5] = system: GLAST; test: Immunohistochemistry of rat lumbar spinal cord, GLAST; assay type: in vivo; settings: day 12 post-transection, ipsilateral side
# Method: For assessment of GFAP, GLT-1 and GLAST immunoreactivity, a separate group of rats (n=4/treatment) were anesthetized and transcardially perfused with 0.1 M PBS (phosphate-buffered saline), pH 7.4, followed by 4% paraformaldehyde in PBS on day 12 post-L5 spinal nerve transection. Lumbar spinal cord sections were identified, isolated, and processed as described previously (Colburn, R. W. et al. 1997. J. Neuroimmunol. 79:163-175). Free-floating, […] were cut in a cryostat and processed for immunofluorescence. Sections were blocked with 5% FBS/0.1% Triton-X 100 for 1 hour at room temperature (RT). For double immunofluorescence, spinal sections were incubated with a mixture of rabbit polyclonal anti-GLT-1 (1:500) or guinea pig anti-GLAST (1:5000, Chemicon, Temecula, Calif.), and mouse anti-GFAP G-A-5 (astrocyte marker, 1:400, Sigma Chemical Co., St. Louis, Mo.) in 3% FBS/0.1% triton-X 100/TBS over night at 4° C., washed, incubated in a mixture of goat anti-rabbit Alexa Fluor™-555 and goat anti-mouse Alexa Fluor™-488 (1:250, Molecular Probes, Eugene, Oreg.) secondary antibodies in 3% FBS/0.1% triton-X 100/TBS for 1 hour at RT. To control for nonspecific staining, control sections were incubated in the absence of primary antibodies. The sections were examined with a fluorescence microscope, and images were captured with a Q-Fire cooled camera. […]
smiles,measurement,setting,value
CCCn1cnc2c1c(=O)n(CCCCC(C)=O)c(=O)n2C [propentofylline],increase in GLT-1 mRNA,"[1]; day 3, high dose",3 fold
same,induction of GLT-1 mRNA,"[1]; day 7, high dose",20 fold
same,"GLT-1 mRNA level, in words","[1]; propentofylline 10, 100, 1000 μM, db-cAMP 250 μM, relative to GAPDH",enhancement of GLT-1 and GLAST mRNA levels in a dose-dependent manner; also recorded: dose-dependently induced GLT-1 and GLAST at the mRNA level
same,GLAST staining,[2],slightly increased GLAST staining
same,PDE IV,[3],inhibit
same,sensitivity of increased glutamate transport to DHK inhibition,[4]; 100 μM DHK for 10 minutes before substrate,sensitive to DHK inhibition
same,increase in glutamate uptake,"[4]; 100 μM, 7 days",1.7 fold
same,increase in Na+-dependent glutamate transport,"[4]; 1000 μM, 7 days",2.1 fold
same,"glutamate uptake, in words",[4]; 7-day treated cultures,dose-dependent increase in glutamate uptake
same,GLAST immunoreactivity in dorsal horn,[5],did not enhance GLAST immunoreactivity on the ipsilateral side
